Data: ChEMBL document CHEMBL4014333, “Discovery of Small Molecules for Repressing Cap-Independent Translation of Human Vascular Endothelial Growth Factor (hVEGF) as Novel Antitumor Agents” (J Med Chem, 2017)
The source made the active and inactive calls. The rule behind the calls is not given here. Numbered stars: 1 amine (or outer) side, 2 acyl side, 3 side chain; on linkers, the order of the positions; unused ones are H or OH. Square brackets hold non-standard residues; d marks the D form. Peptide text beside a SMILES is read from it. X1 = CN1CCC(COc2ccc3oc4c(N(CC(=O)[*:2])[*:1])c5ccccc5nc4c3c2)CC1

Species: Homo sapiens
Test: Binding affinity to biotin-labeled human 5'-UGAUGAGUGUGAGGAGGA-3' RNA G-quadruplex by SPR analysis

Activity | SMILES
Active | C[n+]1c2ccccc2c(NCCN2CCCCC2)c2oc3ccc(OCC[N+]4(C)CCOCC4)cc3c21
Active | CCN(CC)CCCNc1c2ccccc2[n+](C)c2c1oc1ccc(OCC[N+]3(C)CCOCC3)cc12
Active | C[n+]1c2ccccc2c(NCCCO)c2[nH]c3ccccc3c21
Active | C[n+]1c2ccccc2c(NCCN2CCCCC2)c2oc3ccc(OCC4CC[N+](C)(C)CC4)cc3c21

Species: Homo sapiens
Test: Binding affinity to biotin-labeled human wild type internal ribosome entry site A RNA G-quadruplex by SPR analysis

SMILES | Activity
C[n+]1c2ccccc2c(NCCN2CCCCC2)c2oc3ccc(OCC[N+]4(C)CCOCC4)cc3c21 | Active
CC(NC(=O)C(CCCNC(=N)N)NC(=O)CNC(=O)CNc1c2ccccc2nc2c1oc1ccc(OCC3CCN(C)CC3)cc12)C(=O)O (stereo not given) | Active
CCN(CC)CCOc1ccc(Nc2nc(-c3ccccc3N)nc3ccccc23)cc1 | Active
CN1CCC(COc2ccc3oc4c(NCC(=O)NCC(=O)NC(Cc5c[nH]cn5)C(=O)O)c5ccccc5nc4c3c2)CC1 (stereo not given) | Active
C[n+]1c2ccccc2c(NCCCO)c2[nH]c3ccccc3c21 | Active
C[n+]1c2ccccc2c(NCC(=O)NCC(=O)NC(Cc2c[nH]cn2)C(=O)O)c2oc3ccccc3c21 (stereo not given) | Active
C[n+]1c2ccccc2c(NCCN2CCCCC2)c2oc3ccc(OCC4CC[N+](C)(C)CC4)cc3c21 | Active
C[n+]1c2ccccc2c(NCCO)c2[nH]c3ccccc3c21 | Active
CN1CCC(COc2ccc3oc4c(NCC(=O)NCC(=O)NC(CCCNC(=N)N)C(=O)NC(CCC(N)=O)C(=O)O)c5ccccc5nc4c3c2)CC1 (stereo not given) | Active
C[n+]1c2ccccc2c(NCC(=O)NCC(=O)NC(CCCCN)C(=O)O)c2oc3ccccc3c21 (stereo not given) | Active
CN1CCC(COc2ccc3oc4c(NCC(=O)NCC(=O)NC(CCCNC(=N)N)C(=O)NC(Cc5c[nH]cn5)C(=O)NCC(=O)O)c5ccccc5nc4c3c2)CC1 (stereo not given) (H-[X1]GRHG-OH; configuration not given here) | Active
C[n+]1c2ccccc2c(NCCN2CCOCC2)c2oc3ccc(OCC(=O)NCCN4CCOCC4)cc3c21 | Active
CN1CCC(COc2ccc3oc4c(NCC(=O)NCC(=O)NC(CCCNC(=N)N)C(=O)NC(Cc5ccc(O)cc5)C(=O)O)c5ccccc5nc4c3c2)CC1 (stereo not given) | Active
CN(C)CCCNc1c2ccccc2[n+](C)c2c1[nH]c1ccccc12 | Active
O=C1/C(=C\c2ccc(N3CCOCC3)cc2)CC/C1=C\c1cccnc1 | Active
CN1CCC(COc2ccc3oc4c(NCC(=O)NCC(=O)NC(CCCNC(=N)N)C(=O)NC(Cc5c[nH]c6ccccc56)C(=O)O)c5ccccc5nc4c3c2)CC1 (stereo not given) | Active
C[n+]1c2ccccc2c(NCC(=O)NC(CCCNC(=N)N)C(=O)O)c2oc3ccccc3c21 (stereo not given) | Active

SMILES | Activity
CCN(CC)CCOc1ccc(Nc2nc(-c3ccccc3NC(=O)CCCl)nc3ccccc23)cc1 | Active
C[n+]1c2ccccc2c(NCC(=O)NC(Cc2ccccc2)C(=O)NC(CCCNC(=N)N)C(=O)O)c2oc3ccccc3c21 (stereo not given) | Active
CN(C)CCCCOc1cccc2c1oc1c(NCCCN(C)C)c3ccccc3nc12 | Active
CN1CCC(COc2ccc3oc4c(NCC(=O)NC(CCCCN)C(=O)NC(CCCNC(=N)N)C(=O)O)c5ccccc5nc4c3c2)CC1 (stereo not given) | Active
C[n+]1c2ccccc2c(NCCCN2CCCCC2)c2oc3ccc(OCC(=O)NCCCN4CCCCC4)cc3c21 | Active
CN1CCC(COc2ccc3oc4c(NCC(=O)NCC(=O)NC(CCCCN)C(=O)O)c5ccccc5nc4c3c2)CC1 (stereo not given) | Active
C[n+]1c2ccccc2c(NCC(=O)NC(CCCCN)C(=O)NC(CCCNC(=N)N)C(=O)O)c2oc3ccccc3c21 (stereo not given) | Active
CN(C)CCNC(=O)COc1ccc2oc3c(NCCN(C)C)c4ccccc4[n+](C)c3c2c1 | Active
C[n+]1c2ccccc2c(NCCCN2CCOCC2)c2oc3ccc(OCC(=O)NCCN4CCOCC4)cc3c21 | Active
CN1CCC(COc2ccc3oc4c(NCC(=O)NCC(=O)NC(CCCNC(=N)N)C(=O)NC(Cc5c[nH]cn5)C(=O)O)c5ccccc5nc4c3c2)CC1 (stereo not given) | Active
CN1CCC(COc2ccc3oc4c(NCC(=O)NCC(=O)NC(CCCNC(=N)N)C(=O)O)c5ccccc5nc4c3c2)CC1 (stereo not given) | Active
CN(C)CCNc1c2ccccc2[n+](C)c2c1[nH]c1cc(F)c(F)cc12 | Active
CN1CCC(COc2ccc3oc4c(NCC(=O)NC(Cc5c[nH]cn5)C(=O)NC(CCCNC(=N)N)C(=O)O)c5ccccc5nc4c3c2)CC1 (stereo not given) | Active
CN1CCC(COc2ccc3oc4c(NCC(=O)NCC(=O)NC(CCCNC(=N)N)C(=O)NC(CCC(=O)O)C(=O)O)c5ccccc5nc4c3c2)CC1 (stereo not given) | Active
CN1CCC(COc2ccc3oc4c(NCC(=O)NCC(=O)NCC(=O)O)c5ccccc5nc4c3c2)CC1 | Active
CN1CCC(COc2ccc3oc4c(NCC(=O)NCC(=O)NC(CCCNC(=N)N)C(=O)NC(Cc5ccccc5)C(=O)O)c5ccccc5nc4c3c2)CC1 (stereo not given) | Active

Now from value to molecule:

Activity | SMILES
Active | CCN(CC)CCCNc1c2ccccc2[n+](C)c2c1oc1ccc(OCC[N+]3(C)CCOCC3)cc12
Active | CN(C)CCCNc1c2ccccc2nc2c1oc1c(OCCN(C)C)cccc12
Active | COc1ccc2cc3[n+](cc2c1OCCC[n+]1ccc(N(C)C)cc1)CCc1cc2c(cc1-3)OCO2
Active | COc1ccc2cc3[n+](cc2c1OCCN)CCc1cc2c(cc1-3)OCO2
Active | COc1ccc2cc3[n+](cc2c1OCCCN)CCc1cc2c(cc1-3)OCO2
Active | COc1ccc2cc3[n+](cc2c1NCCN(C)C)CCc1cc2c(cc1-3)OCO2
Active | COc1ccc2cc3[n+](cc2c1OCCC[n+]1ccccc1)CCc1cc2c(cc1-3)OCO2
Active | COc1ccc2cc3[n+](cc2c1NCCN1CCOCC1)CCc1cc2c(cc1-3)OCO2
Active | COc1ccc2cc3[n+](cc2c1OCCCOc1ccncc1)CCc1cc2c(cc1-3)OCO2
Active | COc1ccc2cc3[n+](cc2c1OCCCn1cc[n+](C)c1)CCc1cc2c(cc1-3)OCO2
Active | COc1ccc2cc3[n+](cc2c1OCCC[n+]1cccc(C)c1)CCc1cc2c(cc1-3)OCO2
Active | CN(C)CCCNc1c2ccccc2nc2c1oc1ccc(OCCN(C)C)cc12
Active | COc1ccc2cc3[n+](cc2c1OCCCn1ccc(N)nc1=O)CCc1cc2c(cc1-3)OCO2
Active | COc1ccc2cc3[n+](cc2c1NCCN1CCCCC1)CCc1cc2c(cc1-3)OCO2
Active | COc1ccc2cc3[n+](cc2c1OCCCCCC[n+]1ccccc1)CCc1cc2c(cc1-3)OCO2
Active | COc1ccc2cc3[n+](cc2c1OCCCCC[n+]1ccccc1)CCc1cc2c(cc1-3)OCO2
Active | CN(C)CCCNc1c2ccccc2nc2c1oc1ccc(OCCCN(C)C)cc12
Active | COc1ccc2cc3[n+](cc2c1NCCO)CCc1cc2c(cc1-3)OCO2
Active | CN(C)CCCNc1c2ccccc2nc2c1oc1ccc(OCC3CCN(C)CC3)cc12
Active | C[n+]1c2ccccc2c(NCCCN2CCOCC2)c2oc3ccc(OCC[N+]4(C)CCCCC4)cc3c21
Active | COc1ccc2cc3[n+](cc2c1NCCCCCCN)CCc1cc2c(cc1-3)OCO2
Active | CN(C)CCCNc1c2ccccc2nc2c1oc1cc(OCCN(C)C)ccc12
Active | COc1ccc2cc3[n+](cc2c1OCCC[n+]1cccc(F)c1)CCc1cc2c(cc1-3)OCO2
Active | CN(C)CCNc1c2ccccc2nc2c1oc1ccc(OCCN(C)C)cc12

Tested on: not listed separately
Test: Binding affinity to biotin-labeled DNA hairpin (unknown origin) by SPR analysis

Activity | SMILES
Active | C[n+]1c2ccccc2c(NCCN2CCCCC2)c2oc3ccc(OCC[N+]4(C)CCOCC4)cc3c21
Active | CCN(CC)CCCNc1c2ccccc2[n+](C)c2c1oc1ccc(OCC[N+]3(C)CCOCC3)cc12
Active | C[n+]1c2ccccc2c(NCCCO)c2[nH]c3ccccc3c21
Active | C[n+]1c2ccccc2c(NCCN2CCCCC2)c2oc3ccc(OCC4CC[N+](C)(C)CC4)cc3c21
